Measured values as given in ChEMBL document CHEMBL5584238, “Psammaplin A analogues with modified disulfide bond targeting histone deacetylases: Synthesis and biological evaluation” (Eur J Med Chem, 2024).
The source made the active and inactive calls. No cut-off for these calls is given here.

Assays:
[1] = tested on: HCT-116; test: Induction of cell cycle arrest in human HCT-116 cells assessed as accumulation of cells at S phase at 0.2 uM after 24 hrs by PI staining based flow cytometry analysis (reference value: 52.8%); assay type: functional
[2] = Toxicity in mouse assessed as mortality at 5 mg/kg, ip administered every 2 days for 26 days; assay type: organism-based; conditions: in vivo, 624 h, time 26 day
[3] = tested on: HCT-116; test: Induction of apoptosis in human HCT-116 cells assessed as early apoptotic cells at 0.4 uM incubated for 24 hrs by Annexin V-FITC/PI staining based flow cytometry analysis ( Rvb = 2.36%); assay type: functional
[4] = tested on: HCT-116; test: Induction of apoptosis in human HCT-116 cells assessed as viable cells at 0.2 uM incubated for 24 hrs by Annexin V-FITC/PI staining based flow cytometry analysis ( Rvb = 92.2%); assay type: functional; conditions: read-out: Activity
[5] = tested on: HCT-116; test: Antiproliferative activity against human HCT-116 cells incubated for 48 hrs by MTT assay; assay type: functional, cell-based; conditions: HCT-116, 48 h
[6] = tested on: HCT-116; test: Antitumor activity against human HCT-116 cells xenografted with BALB/c nude mouse assessed as tumor growth inhibition at 5 mg/kg, ip administered every 2 days for 26 days; assay type: functional; conditions: HCT-116, 624 h, time 26 day, read-out: TGI
[7] = target: Histone deacetylase 1 (Homo sapiens, UniProt Q13547); test: Inhibition of recombinant human HDAC1 using Boc-Lys(Ac)-AMC as substrate preincubated for 1 hr followed by substrate addition and measured after 2 hrs by microplate reader assay
[8] = target: T1, Protein deacetylase HDAC6 (Homo sapiens, UniProt Q9UBN7); test: Inhibition of recombinant human HDAC6 using Boc-Lys(Ac)-AMC as substrate preincubated for 1 hr followed by substrate addition and measured after 2 hrs by microplate reader assay
T1 sequence (Q9UBN7 whole entry): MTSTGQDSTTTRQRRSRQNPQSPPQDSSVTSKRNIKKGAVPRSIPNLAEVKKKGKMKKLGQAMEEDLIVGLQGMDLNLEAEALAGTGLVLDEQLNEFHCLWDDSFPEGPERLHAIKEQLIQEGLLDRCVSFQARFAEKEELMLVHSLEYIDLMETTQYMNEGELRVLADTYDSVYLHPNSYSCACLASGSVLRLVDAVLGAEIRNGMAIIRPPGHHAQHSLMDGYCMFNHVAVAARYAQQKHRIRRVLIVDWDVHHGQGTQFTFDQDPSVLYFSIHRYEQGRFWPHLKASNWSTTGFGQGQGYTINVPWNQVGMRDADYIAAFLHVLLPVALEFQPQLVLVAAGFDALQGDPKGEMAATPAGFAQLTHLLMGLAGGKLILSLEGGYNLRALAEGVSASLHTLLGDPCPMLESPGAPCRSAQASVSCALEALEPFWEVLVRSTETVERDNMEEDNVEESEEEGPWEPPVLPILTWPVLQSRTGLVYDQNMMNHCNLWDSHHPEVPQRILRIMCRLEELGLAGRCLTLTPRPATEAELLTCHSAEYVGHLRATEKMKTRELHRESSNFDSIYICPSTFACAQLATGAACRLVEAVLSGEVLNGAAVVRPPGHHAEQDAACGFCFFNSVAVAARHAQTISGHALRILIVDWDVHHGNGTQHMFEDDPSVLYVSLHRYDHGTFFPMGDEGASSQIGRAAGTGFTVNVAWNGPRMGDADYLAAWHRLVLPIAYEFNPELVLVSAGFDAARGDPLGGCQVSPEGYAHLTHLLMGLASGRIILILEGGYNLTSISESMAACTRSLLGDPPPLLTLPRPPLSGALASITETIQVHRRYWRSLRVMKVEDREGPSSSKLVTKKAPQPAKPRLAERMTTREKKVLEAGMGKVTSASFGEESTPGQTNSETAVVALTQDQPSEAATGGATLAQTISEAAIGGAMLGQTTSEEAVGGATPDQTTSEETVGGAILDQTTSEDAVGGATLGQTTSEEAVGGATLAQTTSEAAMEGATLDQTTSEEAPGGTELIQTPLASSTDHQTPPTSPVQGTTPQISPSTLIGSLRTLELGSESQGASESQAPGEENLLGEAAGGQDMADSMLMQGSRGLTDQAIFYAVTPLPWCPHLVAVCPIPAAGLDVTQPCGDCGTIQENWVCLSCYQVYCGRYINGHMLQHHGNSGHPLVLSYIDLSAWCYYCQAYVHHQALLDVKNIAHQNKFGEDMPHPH

[9] = tested on: HCT-116; test: Induction of cell cycle arrest in human HCT-116 cells assessed as accumulation of cells at G1 phase at 0.2 uM after 24 hrs by PI staining based flow cytometry analysis (reference value: 37.9%); assay type: functional
[10] = target: T2, Protein deacetylase HDAC6 (Homo sapiens) (UniProt Q9UBN7); test: Inhibition of HDAC6 in human HCT-116 cells assessed as upregulation of acetylated alpha-tubulin level incubated for 24 hrs by Western blotting analysis; assay type: cell-based; conditions: dose 0.5-4 µM
T2 sequence (whole entry): T1 sequence (Q9UBN7 whole entry)

[11] = tested on: HCT-116; test: Induction of apoptosis in human HCT-116 cells assessed as early apoptotic cells at 0.2 uM incubated for 24 hrs by Annexin V-FITC/PI staining based flow cytometry analysis ( Rvb = 2.36%); assay type: functional
[12] = tested on: EBC-1; test: Antiproliferative activity against human EBC-1 cells incubated for 48 hrs by MTT assay; assay type: functional, cell-based; conditions: EBC-1, 48 h
[13] = target: Class 1 histone deacetylase (Homo sapiens) (UniProt Q13547+O15379+Q92769+Q9BY41); test: Inhibition of class 1 HDACs in human HCT-116 cells assessed as upregulation of acetylated alpha-H3 level at 1 uM incubated for 24 hrs by Western blotting analysis; assay type: cell-based
[14] = target: T2, Protein deacetylase HDAC6 (Homo sapiens); test: Inhibition of HDAC6 in human HCT-116 cells assessed as upregulation of acetylated alpha-tubulin level at 1 uM incubated for 24 hrs by Western blotting analysis; assay type: cell-based
[15] = tested on: NCI-H1581; test: Antiproliferative activity against human NCI-H1581 cells incubated for 48 hrs by MTT assay; assay type: functional, cell-based; conditions: NCI-H1581, 48 h
[16] = tested on: HCT-116; test: Induction of cell cycle arrest in human HCT-116 cells assessed as accumulation of cells at G2/M phase at 0.4 uM after 24 hrs by PI staining based flow cytometry analysis (reference value: 9.3%); assay type: functional
[17] = tested on: HCT-116; test: Induction of cell cycle arrest in human HCT-116 cells assessed as accumulation of cells at G1 phase at 0.4 uM after 24 hrs by PI staining based flow cytometry analysis (reference value: 37.9%); assay type: functional
[18] = tested on: HCT-116; test: Induction of cell cycle arrest in human HCT-116 cells assessed as accumulation of cells at S phase at 0.4 uM after 24 hrs by PI staining based flow cytometry analysis (reference value: 52.8%); assay type: functional

Chain of Histone deacetylase 1 (Q13547 whole entry): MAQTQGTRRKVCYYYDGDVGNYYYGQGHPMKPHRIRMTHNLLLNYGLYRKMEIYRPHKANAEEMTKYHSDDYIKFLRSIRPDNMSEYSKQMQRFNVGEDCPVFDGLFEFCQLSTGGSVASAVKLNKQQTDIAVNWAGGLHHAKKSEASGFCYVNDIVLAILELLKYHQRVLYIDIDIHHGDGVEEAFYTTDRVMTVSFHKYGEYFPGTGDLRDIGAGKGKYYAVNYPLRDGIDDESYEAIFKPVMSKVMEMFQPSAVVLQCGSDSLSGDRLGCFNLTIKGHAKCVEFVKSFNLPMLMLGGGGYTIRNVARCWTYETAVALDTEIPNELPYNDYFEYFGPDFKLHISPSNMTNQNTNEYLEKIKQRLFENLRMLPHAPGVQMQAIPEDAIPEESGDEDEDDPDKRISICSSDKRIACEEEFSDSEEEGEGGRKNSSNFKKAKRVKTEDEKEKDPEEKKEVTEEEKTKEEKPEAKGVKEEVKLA
Chain of Class 1 histone deacetylase (Homo sapiens) (O15379 whole entry, looked up): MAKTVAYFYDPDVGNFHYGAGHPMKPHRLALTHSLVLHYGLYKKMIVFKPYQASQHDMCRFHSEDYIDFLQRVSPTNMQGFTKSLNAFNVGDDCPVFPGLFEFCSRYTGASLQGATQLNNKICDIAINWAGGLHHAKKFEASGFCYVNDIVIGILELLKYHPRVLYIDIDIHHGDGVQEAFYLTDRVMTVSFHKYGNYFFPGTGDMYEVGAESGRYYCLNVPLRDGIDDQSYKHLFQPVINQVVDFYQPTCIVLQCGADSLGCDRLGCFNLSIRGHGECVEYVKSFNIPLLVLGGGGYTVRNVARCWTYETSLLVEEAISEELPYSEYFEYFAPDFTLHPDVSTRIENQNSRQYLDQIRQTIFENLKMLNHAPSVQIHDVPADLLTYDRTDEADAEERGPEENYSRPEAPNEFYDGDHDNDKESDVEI
Chain of Class 1 histone deacetylase (Homo sapiens) (Q13547 whole entry, looked up): as the sequence (Q13547 whole entry) above
Chain of Class 1 histone deacetylase (Homo sapiens) (Q92769 whole entry, looked up): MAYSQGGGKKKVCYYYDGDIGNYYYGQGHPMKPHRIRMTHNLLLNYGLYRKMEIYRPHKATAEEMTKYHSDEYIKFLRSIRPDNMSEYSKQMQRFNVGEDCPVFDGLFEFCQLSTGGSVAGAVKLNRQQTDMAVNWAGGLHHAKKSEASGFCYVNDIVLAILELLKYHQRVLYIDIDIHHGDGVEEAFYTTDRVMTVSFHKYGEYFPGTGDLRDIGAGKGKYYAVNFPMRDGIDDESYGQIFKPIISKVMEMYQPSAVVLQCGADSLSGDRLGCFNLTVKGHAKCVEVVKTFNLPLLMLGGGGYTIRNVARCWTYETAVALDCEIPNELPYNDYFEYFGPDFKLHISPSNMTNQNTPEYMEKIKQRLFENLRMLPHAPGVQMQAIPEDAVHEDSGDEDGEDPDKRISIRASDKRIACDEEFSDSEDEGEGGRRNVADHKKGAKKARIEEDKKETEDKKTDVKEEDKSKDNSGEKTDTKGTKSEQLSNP
Chain of Class 1 histone deacetylase (Homo sapiens) (Q9BY41 whole entry, looked up): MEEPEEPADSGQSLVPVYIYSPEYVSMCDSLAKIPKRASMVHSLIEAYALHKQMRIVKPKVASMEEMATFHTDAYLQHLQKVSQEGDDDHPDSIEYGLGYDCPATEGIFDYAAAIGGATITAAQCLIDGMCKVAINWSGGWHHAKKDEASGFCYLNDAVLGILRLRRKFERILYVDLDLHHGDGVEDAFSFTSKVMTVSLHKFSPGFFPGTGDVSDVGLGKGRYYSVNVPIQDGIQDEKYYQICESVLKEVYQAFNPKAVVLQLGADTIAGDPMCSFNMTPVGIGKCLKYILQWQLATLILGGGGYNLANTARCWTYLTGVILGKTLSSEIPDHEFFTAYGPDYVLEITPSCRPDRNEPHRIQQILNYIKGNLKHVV

| Compound | Activity [1] [%] | Activity [2] | Activity [3] [%] | viability at 0.2 µM [4] [%] | IC50 [5] [µM] | inhibition in vivo at 5 mg/kg [6] [%] | IC50 [7] [µM] | IC50 [8] [µM] | Activity [9] [%] | inhibition [10] | Activity [11] [%] | IC50 [12] [µM] | inhibition [13] | inhibition [14] | IC50 [15] [µM] | Activity [16] [%] | Activity [17] [%] | Activity [18] [%] |
| --- | --- | --- | --- | --- | --- | --- | --- | --- | --- | --- | --- | --- | --- | --- | --- | --- | --- | --- |
| O=C(NCC[Se][Se]CCNC(=O)/C(Cc1ccc(O)c(Br)c1)=N/O)/C(Cc1ccc(O)c(Br)c1)=N/O | 10.45 | Toxic | 67 | 40.7 | 0.24 | 74.6 | 0.17 | 0.06 | 15 | Dose-Dependent Effect | 46.1 |  |  |  |  |  |  |  |
| O=C(NCC[Se][Se]CCNC(=O)/C(Cc1ccsc1)=N/O)/C(Cc1ccsc1)=N/O | 36.99 |  | 73.3 | 34.5 | 0.21 | 24 | 0.77 | 3.1 | 11.19 | Dose-Dependent Effect | 47.1 | 0.64 | Active | Active | 0.26 | 52.59 | 7.85 | 39.56 |
